Results reported in US9427468B2, “Compositions and methods for diagnosing and treating community-acquired methicillin-resistant Staphylococcus aureus” (priority 2007, dated 2016).
≈ marks a conversion by molar mass, not a printed value.

What was measured:
[1] = tested on: COL wild-type; assay: MIC by microdilution (CLSI); format: cell-based, Staphylococcus aureus
From the text: (§1) The present invention was described based on a series of experiments examining the biological basis for CA-MRSA strains versus HA-MRSA strains, focusing on the role of PBPs in CA-MRSA and generally in β-lactam resistance. Experiments were first performed using mutants of various PBPs. In-frame deletion mutants of the genes encoding PBP3 (MW1504) and PBP4 (MW0604), pbp3 and pbp4 respectively, were generated in the CA-MRSA strain MW2 and in HA-MRSA strain COL using the temperature-sensitive allelic replacement vector pMAD (Arnaud, M. et al. 2004. Appl. Environ. Microbiol. 70:6887-6891). PBP4 was also deleted in the HA-MRSA strains Mu50 and N315 and in the CA-MRSA strain USA300. […] Minimum inhibitory concentrations (MICs) were determined according to the Clinical and Laboratory Standards Institute and are a standard method for defining antibiotic efficacy against different organisms. Bacteria, grown to an OD650=1, were added to cation-supplemented Mueller Hinton broth (CSMHB) to achieve a final concentration of 5×10^5 CFU/ml.
(§2) Although PBP4, similar to PBP2A, binds with low affinity to many β-lactams, PBP4 binds cefoxitin, a semi-synthetic β-lactam derived from cephamycin C, with high affinity (Nair, S. R. and C. E. Cherubin. 1978. Antimicrob. Agents Chemother. 14:866-875).
(§3) Minimum inhibitory concentrations and minimum bactericidal concentrations (MIC and MBC, respectively) were determined for each isolate in triplicate by microdilution techniques with an inoculum of 5×10^5 CFU/ml according to the Clinical and Laboratory Standards Institute guidelines. Aliquots (5 μl) from clear wells were plated onto TSA drug-free plates for the determination of MBCs, followed by incubation at 37° C. for 24 and 48 hours. For the mutant strains, each one of the three clones was tested. MIC data were reported as median values from at least three independent experiments for each antibiotic. Also, strains containing pEPSA5-based plasmids were tested with and without xylose induction, but chloramphenicol was not added to avoid interference with beta-lactam resistance evaluation. […] The correct inocula were confirmed by plating serial dilutions on agar.

[2] = tested on: MW2 (USA400) wild-type; assay: MIC by microdilution (CLSI); format: cell-based, Staphylococcus aureus
From the text: as §1, §2, §3

[3] = tested on: USA300 wild-type; assay: MIC by microdilution (CLSI); format: cell-based, Staphylococcus aureus
From the text: as §1, §2, §3

[4] = tested on: MW2 ex Δpbp4; assay: MIC by microdilution (CLSI); format: cell-based, Staphylococcus aureus
From the text: as §1, §3

[5] = tested on: N315 wild-type; assay: MIC by microdilution (CLSI); format: cell-based, Staphylococcus aureus
From the text: as §1, §3

[6] = tested on: MW2 ex (MW2 cured of plasmid pMW2); assay: MIC by microdilution (CLSI); format: cell-based; details: Staphylococcus aureus, Table 1
From the text: as §1, with “Experiments” for “The present invention was described based on a series of experiments examining the biological basis for CA-MRSA strains versus HA-MRSA strains, focusing on the role of PBPs in CA-MRSA and generally in β-lactam resistance. Experiments”
as §3

[7] = tested on: MW2 ex Δpbp3; assay: MIC by microdilution (CLSI); format: cell-based; details: Staphylococcus aureus, read-out: MICs
From the text: as §1, with “Experiments” for “The present invention was described based on a series of experiments examining the biological basis for CA-MRSA strains versus HA-MRSA strains, focusing on the role of PBPs in CA-MRSA and generally in β-lactam resistance. Experiments”
as §3

[8] = tested on: MW2 ex Δpbp3/4; assay: MIC by microdilution (CLSI); format: cell-based, Staphylococcus aureus
From the text: as §1, with “Experiments” for “The present invention was described based on a series of experiments examining the biological basis for CA-MRSA strains versus HA-MRSA strains, focusing on the role of PBPs in CA-MRSA and generally in β-lactam resistance. Experiments”
as §3

[9] = tested on: Mu50 wild-type; assay: MIC by microdilution (CLSI); format: cell-based, Staphylococcus aureus
From the text: as §1, with “Experiments” for “The present invention was described based on a series of experiments examining the biological basis for CA-MRSA strains versus HA-MRSA strains, focusing on the role of PBPs in CA-MRSA and generally in β-lactam resistance. Experiments”
as §3

[10] = tested on: PBP4; details: cited from earlier work
[11] = tested on: MW2 Δpbp3/4; assay: MIC by microdilution (CLSI); format: cell-based, Staphylococcus aureus; details: Table 1, MW2 Δpbp3/4
From the text: as §1, §3

[12] = tested on: MW2 Δpbp3; assay: MIC by microdilution (CLSI); format: cell-based, Staphylococcus aureus; details: Table 1; MW2 Δpbp3
From the text: as §1, §3

[13] = tested on: MW2 Δpbp4::pbp4; assay: MIC by microdilution (CLSI); format: cell-based, Staphylococcus aureus; details: Table 1; MW2 Δpbp4::pbp4 (complemented)
From the text: as §1, §3

[14] = tested on: MW2 Δpbp4; assay: MIC by microdilution (CLSI); format: cell-based, Staphylococcus aureus
From the text: as §1, §3

[15] = tested on: USA300 Δpbp4::pbp4; assay: MIC by microdilution (CLSI); format: cell-based, Staphylococcus aureus; details: Table 1; USA300 Δpbp4::pbp4 (complemented)
From the text: as §1, §3

[16] = tested on: USA300 Δpbp4; assay: MIC by microdilution (CLSI); format: cell-based, Staphylococcus aureus
From the text: as §1, §3

[17] = tested on: MRSA252 HA-MRSA; assay: MIC and synergy assay; format: cell-based, Staphylococcus aureus; details: for combination: MIC of oxacillin with ¼ MIC cefoxitin
Method: as §3

[18] = tested on: COL HA-MRSA; assay: Minimum bactericidal concentration (MBC); format: cell-based, Staphylococcus aureus; details: for combination: MBC of oxacillin with ¼ MIC cefoxitin
Method: as §3

[19] = tested on: MRSA252 HA-MRSA; assay: Minimum bactericidal concentration (MBC); format: cell-based, Staphylococcus aureus; details: for combination: MBC of oxacillin with ¼ MIC cefoxitin
Method: as §3

[20] = tested on: Mu50 HA-MRSA/VISA; assay: Minimum bactericidal concentration (MBC); format: cell-based, Staphylococcus aureus; details: for combination: MBC of oxacillin with ¼ MIC cefoxitin
Method: as §3

[21] = Staphylococcus aureus, read-out: MICs

CO[C@@]1(NC(=O)Cc2cccs2)C(=O)N2C(C(=O)O)=C(COC(N)=O)CS[C@@H]21 [CX, cefoxitin]
MIC [1, 21]: 128 µg/mL (≈ 299 µM)
MIC ([2]; Staphylococcus aureus, USA400, read-out: MICs): 64 µg/mL (≈ 150 µM)
MIC ([3]; Staphylococcus aureus, USA300, read-out: MICs): 64 µg/mL (≈ 150 µM)
MIC [4, 21]: 16 µg/mL (≈ 37.4 µM)
MIC [5, 21]: 64 µg/mL (≈ 150 µM)
MIC [6]: 16 µg/mL (≈ 37.4 µM)
MIC [7]: 32 µg/mL (≈ 74.9 µM)
MIC [8, 21]: 32 µg/mL (≈ 74.9 µM)
MIC [9, 21]: 256 µg/mL (≈ 599 µM)
affinity for PBP4 [10]: high affinity

Cc1onc(-c2ccccc2)c1C(=O)N[C@@H]1C(=O)N2[C@@H]1SC(C)(C)[C@@H]2C(=O)O [OX, oxacillin]
MICs 48 hr ([1]; COL, 48 hr, for combination: MIC of oxacillin with ¼ MIC cefoxitin): 256 µg/mL
MICs ([1]; Table 1, COL wild-type): 256 µg/mL
MICs 48 hr ([2]; MW2, 48 hr, for combinations: MIC of oxacillin with ¼ MIC of second drug): 64 µg/mL
MICs ([2]; Table 1, MW2 (USA400) wild-type): 64 µg/mL
MICs ([3]; Table 1, USA300 wild-type): 64 µg/mL
MICs 48 hr ([3]; USA300, 48 hr, for combinations: MIC of oxacillin with ¼ MIC of second drug): 64 µg/mL
reduction in oxacillin MIC for the pbp4 mutant ([4]; MW2 ex Δpbp4 versus MW2 ex): 64 fold
MICs ([4]; Table 1, MW2 ex Δpbp4): 2 µg/mL
MICs [11]: 4 µg/mL
MICs ([11]; listed as oxacillin): 1 µg/mL
MICs [12]: 64 µg/mL
MICs [13]: 64 µg/mL
reduction in MIC on loss of pbp4 ([14]; MW2 Δpbp4 versus MW2): 16 fold
MICs ([14]; Table 1, MW2 Δpbp4): 4 µg/mL
MICs ([14]; pbp4 mutant of MW2 with pbp2 expressed from inducible plasmid pEPSA5): 4 µg/mL
MICs ([5]; Table 1, N315 wild-type): 256 µg/mL
MICs [15]: 64 µg/mL
MICs ([16]; Table 1, USA300 Δpbp4): 4 µg/mL
reduction in MIC on loss of pbp4 ([16]; USA300 Δpbp4 versus USA300): 16 fold
MICs ([16]; pbp4 mutant of USA300 with pbp2 expressed from inducible plasmid pEPSA5): 4 µg/mL
MICs ([8]; Table 1, MW2 ex Δpbp3/4): 1 µg/mL
MICs 48 hr ([9]; Mu50, 48 hr, for combination: MIC of oxacillin with ¼ MIC cefoxitin): 256 µg/mL
MICs ([9]; Table 1, Mu50 wild-type): 256 µg/mL
MICs 48 hr [17]: 256 µg/mL
MBC 48 hr [18]: >256 µg/mL
MBC 48 hr [19]: >256 µg/mL
MBC 48 hr [20]: >256 µg/mL
